Source: PubChem BioAssay AID248 (DTP/NCI, 2004)
Inconclusive results and toxic doses are left out. Rule as the data show it: active = T/C of 150% or more; inactive = T/C below 125%.

Test system: L1210 leukemia ip in BDF1 mice, survival T/C
Test: NCI In Vivo Anticancer Drug Screen. Data for tumor model L1210 Leukemia (intraperitoneal) in B6D2F1 (BDF1) mice
Conditions: endpoint: mean survival time, higher = longer survival
How it was run: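 Read-out is survival time, reported as the treated-group measurement over the vehicle-control measurement.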

[1] = dose: 25.0 mg/kg/injection, schedule: Q01DX009 (ip), vehicle: Klucel (hydroxypropylcellulose) (HPC)
[2] = dose: 25.0 mg/kg/injection, schedule: Q04DX003 (ip), vehicle: Klucel (hydroxypropylcellulose) (HPC)
[3] = dose: 50.0 mg/kg/injection, schedule: Q01DX009 (ip), vehicle: Klucel (hydroxypropylcellulose) (HPC)
[4] = dose: 50.0 mg/kg/injection, schedule: Q04DX003 (ip), vehicle: Klucel (hydroxypropylcellulose) (HPC)
[5] = dose: 100.0 mg/kg/injection, schedule: Q04DX003 (ip), vehicle: Klucel (hydroxypropylcellulose) (HPC)
[6] = dose: 100.0 mg/kg/injection, schedule: Q01DX009 (ip), vehicle: Klucel (hydroxypropylcellulose) (HPC)
[7] = dose: 100.0 mg/kg/injection, schedule: Q04DX003 (ip), vehicle: saline
[8] = dose: 200.0 mg/kg/injection, schedule: Q01DX009 (ip), vehicle: Klucel (hydroxypropylcellulose) (HPC)
[9] = dose: 200.0 mg/kg/injection, schedule: Q04DX003 (ip), vehicle: saline
[10] = dose: 400.0 mg/kg/injection, schedule: Q01DX009 (ip), vehicle: Klucel (hydroxypropylcellulose) (HPC)
[11] = dose: 400.0 mg/kg/injection, schedule: Q04DX003 (ip), vehicle: saline
[12] = dose: 100.0 mg/kg/injection, schedule: Q04DX002 (ip), vehicle: Klucel (hydroxypropylcellulose) (HPC)
[13] = dose: 200.0 mg/kg/injection, schedule: Q04DX002 (ip), vehicle: Klucel (hydroxypropylcellulose) (HPC)
[14] = dose: 400.0 mg/kg/injection, schedule: Q04DX002 (ip), vehicle: Klucel (hydroxypropylcellulose) (HPC)
[15] = dose: 50.0 mg/kg/injection, schedule: Q01DX009 (ip), vehicle: saline with Tween-80
[16] = dose: 100.0 mg/kg/injection, schedule: Q01DX009 (ip), vehicle: saline with Tween-80
[17] = dose: 200.0 mg/kg/injection, schedule: Q01DX009 (ip), vehicle: saline with Tween-80
[18] = dose: 100.0 mg/kg/injection, schedule: Q04DX003 (ip), vehicle: saline with Tween-80
[19] = dose: 200.0 mg/kg/injection, schedule: Q04DX003 (ip), vehicle: saline with Tween-80

Measured: T/C

CCC[CH2][Ge]([Cl])([Cl])[CH2]CCC
inactive: [1] 89 % of control | [2] 93 % of control | [3] 94 % of control | [4] 96 % of control | [5] 106 % of control

CNS(=O)(=O)c1ccc(C)cc1
inactive: [6] 104 % of control | [7] 102 % of control | [8] 108 % of control | [9] 100 % of control | [10] 108 % of control | [11] 122 % of control

C[n+]1cc(-c2ccccc2)cc2ccccc21
inactive: dose: 75.0 mg/kg/injection, schedule: Q01DX001 (ip), vehicle: saline 97 % of control

Cc1ccc(NC(=S)Nc2ccccc2)c(C)c1
inactive: dose: 100.0 mg/kg/injection, schedule: Q01DX001 (ip), vehicle: other 89 % of control | [6] 102 % of control | [12] 87 % of control | dose: 200.0 mg/kg/injection, schedule: Q01DX001 (ip), vehicle: other 94 % of control | [8] 97 % of control | [13] 90 % of control | dose: 400.0 mg/kg/injection, schedule: Q01DX001 (ip), vehicle: other 97 % of control | [10] 94 % of control | [14] 106 % of control

O=C(COc1ccc(Cl)cc1C(=O)O)NCc1ccc(NC(=O)Nc2ccc(S(=O)(=O)F)cc2Cl)cc1
inactive: dose: 100.0 mg/kg/injection, schedule: Q01DX001 (ip), vehicle: Klucel (hydroxypropylcellulose) (HPC) 102 % of control | dose: 200.0 mg/kg/injection, schedule: Q01DX001 (ip), vehicle: Klucel (hydroxypropylcellulose) (HPC) 93 % of control | dose: 400.0 mg/kg/injection, schedule: Q01DX001 (ip), vehicle: Klucel (hydroxypropylcellulose) (HPC) 89 % of control

O=[N+]([O-])c1c(O)cc(O)c2ccccc12
inactive: dose: 5.0 mg/kg/injection, schedule: Q01DX001 (ip), vehicle: saline 102 % of control | dose: 10.0 mg/kg/injection, schedule: Q01DX001 (ip), vehicle: saline 106 % of control | dose: 20.0 mg/kg/injection, schedule: Q01DX001 (ip), vehicle: saline 101 % of control | dose: 40.0 mg/kg/injection, schedule: Q01DX001 (ip), vehicle: saline 102 % of control | dose: 80.0 mg/kg/injection, schedule: Q01DX001 (ip), vehicle: saline 104 % of control

Cc1cc2c(C)c3ccccc3c(C)c2c2ccccc12
inactive: [4] 98 % of control | [5] 95 % of control | dose: 200.0 mg/kg/injection, schedule: Q04DX003 (ip), vehicle: Klucel (hydroxypropylcellulose) (HPC) 104 % of control

Nc1nc(-c2ccccc2)nc2nc3[nH]c(=O)[nH]c(=O)c3nc12
inactive: [12] 94 % of control | [13] 102 % of control | [14] 98 % of control

C#CCCCCC#CCCCCNC(=O)NCCCCC#CCCCCC#C
inactive: [7] 93 % of control | [9] 90 % of control | [11] 87 % of control

COc1ccc(CCNC(=O)Cc2ccc(O)cc2)cc1OC
inactive: dose: 100.0 mg/kg/injection, schedule: Q01DX001 (ip), vehicle: carboxymethylcellulose (CMC) 100 % of control | dose: 200.0 mg/kg/injection, schedule: Q01DX001 (ip), vehicle: carboxymethylcellulose (CMC) 102 % of control | dose: 400.0 mg/kg/injection, schedule: Q01DX001 (ip), vehicle: carboxymethylcellulose (CMC) 96 % of control

COc1cccc(CN(CCC(=O)O)Cc2cccc(OC)c2)c1
inactive: dose: 100.0 mg/kg/injection, schedule: Q01DX009 (ip), vehicle: other 100 % of control | dose: 100.0 mg/kg/injection, schedule: Q04DX003 (ip), vehicle: other 88 % of control | dose: 200.0 mg/kg/injection, schedule: Q01DX009 (ip), vehicle: other 102 % of control | dose: 200.0 mg/kg/injection, schedule: Q04DX003 (ip), vehicle: other 88 % of control | dose: 400.0 mg/kg/injection, schedule: Q01DX009 (ip), vehicle: other 102 % of control | dose: 400.0 mg/kg/injection, schedule: Q04DX003 (ip), vehicle: other 93 % of control

O=C1c2ccccc2C(=O)N1CCCCCCCCCN1C(=O)c2ccccc2C1=O
inactive: [12] 113 % of control | [13] 90 % of control | [14] 90 % of control

COc1cccc(C2CCCCCC2OS(=O)(=O)c2ccc(C)cc2)c1OC (stereo not drawn)
inactive: dose: 100.0 mg/kg/injection, schedule: Q04DX003 (ip), vehicle: acetone 110 % of control | dose: 200.0 mg/kg/injection, schedule: Q04DX003 (ip), vehicle: acetone 98 % of control | dose: 400.0 mg/kg/injection, schedule: Q04DX003 (ip), vehicle: acetone 103 % of control

O=C(N/N=C/c1ccccn1)c1ccc(Cl)cc1
inactive: [15] 104 % of control | [16] 86 % of control | [17] 107 % of control

CC(=O)OCC1OC(n2cnc3c(=O)[nH]nnc32)C(OC(C)=O)C1OC(C)=O (stereo not drawn)
inactive: dose: 100.0 mg/kg/injection, schedule: Q01DX005 (ip), vehicle: saline 96 % of control | dose: 100.0 mg/kg/injection, schedule: Q01DX009 (ip), vehicle: saline 94 % of control | dose: 200.0 mg/kg/injection, schedule: Q01DX005 (ip), vehicle: saline 104 % of control | dose: 200.0 mg/kg/injection, schedule: Q01DX009 (ip), vehicle: saline 92 % of control | dose: 400.0 mg/kg/injection, schedule: Q01DX009 (ip), vehicle: saline 99 % of control

Cc1ccc(NC(=O)Nc2ccc(C)c(NC(=O)Nc3ccc(C)cc3C)c2)c(C)c1
inactive: [18] 90 % of control | [17] 103 % of control | [19] 95 % of control | dose: 400.0 mg/kg/injection, schedule: Q01DX009 (ip), vehicle: saline with Tween-80 109 % of control | dose: 400.0 mg/kg/injection, schedule: Q04DX003 (ip), vehicle: saline with Tween-80 93 % of control

O=C1C=C2CCCCC2C1 (stereo not drawn)
inactive: [15] 100 % of control | [16] 88 % of control

O=c1c(Br)c(-c2ccccc2)nc2ccccn12
inactive: dose: 25.0 mg/kg/injection, schedule: Q01DX001 (ip), vehicle: saline with Tween-80 91 % of control | dose: 50.0 mg/kg/injection, schedule: Q01DX001 (ip), vehicle: saline with Tween-80 91 % of control | dose: 100.0 mg/kg/injection, schedule: Q01DX001 (ip), vehicle: saline with Tween-80 95 % of control

O=C(NCCN1CCCC1)NC1CCCCC1
inactive: [6] 101 % of control | [8] 98 % of control

O=[N+]([O-])c1cnccc1Nc1ccncc1
inactive: [18] 98 % of control | [19] 94 % of control

O=c1[nH]nc(Sc2ccccc2)c(=O)[nH]1
inactive: dose: 100.0 mg/kg/injection, schedule: Q01DX001 (ip), vehicle: saline 97 % of control | dose: 200.0 mg/kg/injection, schedule: Q01DX001 (ip), vehicle: saline 97 % of control | dose: 400.0 mg/kg/injection, schedule: Q01DX001 (ip), vehicle: saline 97 % of control

CN(C)CCCC1C2CCC(C2)C1C#N (stereo not drawn)
inactive: dose: 12.5 mg/kg/injection, schedule: Q01DX009 (ip), vehicle: Klucel (hydroxypropylcellulose) (HPC) 104 % of control | [1] 95 % of control | [2] 96 % of control | [3] 104 % of control | [4] 93 % of control
